Target: T1, PA-mST8Sia VI (mouse ST8Sia VI) (Mus musculus, UniProt Q8K4T1)
T1 construct: amino acids 26-398 in the case of mouse ST8Sia VI; signal peptide of mouse immunoglobulin IgM (N); made in house; host or cells: COS-7 cells, transient expression of pcDSA-mST8Sia VI; protein recovered from medium on IgG-Sepharose
T1 sequence (Q8K4T1 26-398): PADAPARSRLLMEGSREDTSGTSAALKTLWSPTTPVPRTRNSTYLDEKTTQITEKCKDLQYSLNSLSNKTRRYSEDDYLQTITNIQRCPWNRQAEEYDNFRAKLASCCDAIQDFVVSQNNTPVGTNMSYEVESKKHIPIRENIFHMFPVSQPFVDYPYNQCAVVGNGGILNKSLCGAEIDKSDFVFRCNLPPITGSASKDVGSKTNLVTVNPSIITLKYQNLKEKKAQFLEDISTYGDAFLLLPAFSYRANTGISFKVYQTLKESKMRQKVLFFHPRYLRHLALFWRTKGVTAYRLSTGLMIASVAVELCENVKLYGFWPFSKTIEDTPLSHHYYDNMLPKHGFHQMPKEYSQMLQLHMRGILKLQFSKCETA
Test: Sialyltransferase activity of PA-mST8Sia VI toward acceptor substrates
Format: biochemical
Details: for Relative rate (%) Mouse ST8SiaVI: incorporation with Fetuin taken as 100, substrate 0.5 mg/ml glycolipids, 1 mg/ml glycoproteins, monosaccharides and oligosaccharides
Protocol: Using each expression vector and lipofectamine (Invitrogen), transient expression was carried out in COS-7 cells (Kojima, N. et al. (1995) FEBS Lett. 360, 1-4). The proteins of the present invention secreted from the cells into which each expression vector had been introduced were named as PA-mST8Sia VI (mouse) and PA-hST8Sia VI (human). PA-mST8Sia VI and PA-hST8Sia VI were adsorbed to IgG-Sepharose (Amersham Pharmacia Biotech), and were then recovered from medium. Sialyltransferase activity was measured as follows according to the method of Lee et al. (Lee, Y.-C. et al. (1999) J. Biol. Chem. 274, 11958-11967). A reaction solution (10 μl) containing 50 mM MES buffer (pH 6.0), 1 mM MgCl2, 1 mM CaCl2, 0.5% Triton CF-54, 100 μM CMP-[^14C]-NeuAc, a glycoconjugate (which was added at 0.5 mg/ml in the case of glycolipids, and at 1 mg/ml in the case of glycoproteins or oligosaccharides), and a PA-mST8Sia VI or PA-hST8Sia VI suspension, was incubated at 37° C. for 3 to 20 hours. Thereafter, in the case of glycolipids, the reaction product was purified with a C-18 column (Sep-Pak Vac 100 mg; Waters) and the purified product was used as a sample, and in the case of oligosaccharides or glycoproteins, the reaction product was directly used as a sample. Thus, the obtained samples were subjected to analysis. In the case of oligosaccharides or glycolipids, the sample was spotted on a silica gel 60 HPTLC plate (Merck), and was then developed with a developing solvent consisting of ethanol:pyridine:n-butanol:water:acetic acid=100:10:10:30:3 (for oligosaccharides), a developing solvent consisting of 1-propanol:ammonia water:water=6:1:2.5 (for oligosaccharides), or a developing solvent consisting of chloroform:methanol: 0.02% CaCl2=55:45:10 (for glycolipids). In the case of glycoproteins, analysis was carried out by SDS-polyacrylamide gel electrophoresis. The obtained radioactivities were visualized with a BAS2000 radio image analyzer (Fuji Film) and then quantified.

| Molecule | Relative rate (%) Mouse ST8SiaVI | activity of PA-mST8Sia VI on the substrate (in words) |
| --- | --- | --- |
| CC(=O)NC1C(O)OC(CO)C(OC2OC(CO)C(O)C(OC3(C(=O)O)CC(O)C(NC(C)=O)C(C(O)C(O)CO)O3)C2O)C1O (stereo not drawn) [3′-Sialyl-N-acetyllactosamine, NeuAcα2,3Galβ1,4GlcNAc] | 411% |  |
| CC(=O)N[C@H]1[C@H]([C@H](O)[C@H](O)CO)O[C@@](O[C@H]2[C@@H](O)[C@@H](CO)OC(O)[C@@H]2O)(C(=O)O)C[C@@H]1O (stereo partly drawn) [3′-Sialylgalactose, NeuAcα2,3Gal] | 13.9% |  |
| CC(=O)N[C@@H]1[C@@H](O)[C@H](O[C@@H]2O[C@H](CO[C@]3(C(=O)O)C[C@H](O)[C@@H](NC(C)=O)[C@H]([C@H](O)[C@H](O)CO)O3)[C@H](O)[C@H](O)[C@H]2O)[C@@H](CO)O[C@H]1O [6′-Sialyl-N-acetyllactosamine, NeuAcα2,6Galβ1,4GlcNAc] | 88.7% |  |
| CC(=O)N[C@H]1[C@H]([C@H](O)[C@H](O)CO)O[C@@](OC[C@H]2OC(O)[C@H](O)[C@@H](O)[C@H]2O)(C(=O)O)C[C@@H]1O (stereo partly drawn) [6′-Sialylgalactose, NeuAcα2,6Gal] | 2.0% |  |
| O=C[C@H](O)[C@@H](O)[C@@H](O)[C@H](O)CO [Galactose] | 0% |  |
| CC(=O)N[C@H]1C(O)O[C@H](CO)[C@H](O)[C@@H]1O (stereo partly drawn) [N-Acetylgalactosamine] | 0% |  |
| CC(=O)N[C@H]1[C@H]([C@H](O)[C@H](O)CO)OC(O)(C(=O)O)C[C@@H]1O (stereo partly drawn) [N-Acetylneuraminic acid] | 0% |  |
| Galβ1,3GalNAcβ1,4(NeuAcα2,8NeuAcα2,3)Galβ1,4Glcβ1-Cer [GD1b] | 0% |  |
| NeuAcα2,3Galβ1,3GalNAcβ1,4Galβ1,4Glcβ1-Cer [GM1b] | 1.0% | showed activity |
| NeuAcα2,3Galβ1,4GlcNAcβ1,3Galβ1,4Glcβ1-Cer [2,3-SPG] | 3.5% | showed activity |
| NeuAcα2,3Galβ1-Cer [GM4] | 1.0% | showed activity |
| NeuAcα2,6Galβ1,3GalNAcβ1,4Galβ1,4Glcβ1-Cer [GSC-68] | 2.6% | showed activity |
| NeuAcα2,6Galβ1,4GlcNAcβ1,3Galβ1,4Glcβ1-Cer [2,6-SPG] | 0.98% | showed activity |

Source: US20060057696A1, “Sugar chain synthases” (priority 2002, published 2006)
